The target in one experiment is T1, mPGES-1 (Homo sapiens, UniProt O14684).
T1 construct: Determination of PGE2 synthase activity in microsomes of A549 cells; endogenous in cells; host or cells: A549 cells (microsomal membranes)
T1 sequence (O14684 1-152): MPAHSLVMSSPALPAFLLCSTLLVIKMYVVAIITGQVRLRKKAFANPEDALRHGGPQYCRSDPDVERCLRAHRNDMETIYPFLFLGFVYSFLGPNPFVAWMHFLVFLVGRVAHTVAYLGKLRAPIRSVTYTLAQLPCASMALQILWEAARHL
As to the kind of experiment: Determination of PGE2 synthase activity in microsomes of A549 cells. It is filed as biochemical. The conditions noted are these: PGH2 substrate, 15 min preincubation at 4°C, read-out: mPGES-1 (IC50 in µmol l^-1). The protocol: Example 9 - Determination of PGE2 synthase activity in microsomes of A549 cells
(A. Koeberle, F. Pollastro, H. Northoff and O. Werz, Br. J. Pharmacol. 2009, 156, 952-961.)
Microsomal membranes were diluted in potassium phosphate buffer (0.1 mol·1^-1, pH 7.4) containing 2.5 mmol·l^-1 glutathione.
Test compounds or vehicle were added, and after 15 min at 4°C the reaction ([…]) was initiated by addition of PGH2 ([…], final concentration). After 1 min at 4°C, the reaction was terminated by using stop solution (100 ml; 40 mmol·l^-1 FeCl2, 80 mmol·l^-1 citric acid and 10 mmol·l^-1 of 11b-PGE2). PGE2 was separated by solid phase extraction on reversed phase (RP)-C18 material by using acetonitrile (200 ml) as eluent, and analysed by RP-HPLC (30% acetonitrile in water + 0.007% TFA (v,v), Nova-Pak® C18 column, 5 x 100 mm, 4 mm particle size, flow rate 1 m-·min^-1) with UV detection at 195 nm. 11b-PGE2 was used as internal standard to quantify PGE2 product formation by integration of the area under the peaks.

For experiment [1], the target named is T2, 5-LO (Homo sapiens, UniProt P09917).
T2 sequence (P09917 1-674): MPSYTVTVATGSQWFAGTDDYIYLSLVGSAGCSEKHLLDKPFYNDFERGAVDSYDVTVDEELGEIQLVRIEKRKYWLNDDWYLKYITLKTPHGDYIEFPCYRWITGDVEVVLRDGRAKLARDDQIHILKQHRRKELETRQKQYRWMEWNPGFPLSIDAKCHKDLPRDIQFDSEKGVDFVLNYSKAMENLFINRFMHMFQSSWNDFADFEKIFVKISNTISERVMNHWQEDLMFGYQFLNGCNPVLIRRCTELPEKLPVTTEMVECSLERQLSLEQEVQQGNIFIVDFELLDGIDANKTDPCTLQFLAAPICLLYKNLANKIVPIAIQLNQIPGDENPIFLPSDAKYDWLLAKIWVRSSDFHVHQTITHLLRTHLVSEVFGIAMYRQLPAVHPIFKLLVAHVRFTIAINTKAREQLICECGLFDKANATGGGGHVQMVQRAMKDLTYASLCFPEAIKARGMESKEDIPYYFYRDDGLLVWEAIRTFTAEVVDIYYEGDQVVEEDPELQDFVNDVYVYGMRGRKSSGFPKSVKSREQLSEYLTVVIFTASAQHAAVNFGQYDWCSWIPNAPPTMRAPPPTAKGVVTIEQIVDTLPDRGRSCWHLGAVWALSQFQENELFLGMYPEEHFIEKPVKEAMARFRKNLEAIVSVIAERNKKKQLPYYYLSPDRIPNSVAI
As to the kind of experiment: 5-LO product formation of purified 5-LO enzyme (cell-free assay). It is filed as biochemical. The note with it: 10 µM AA, 2 mM CaCl2, read-out: 5-LO cell-free assay (IC50 in µmol l^-1). The method, then: (§1) To assay 5- and 15-lipoxygease (LO) product formation in intact cells, 7.5 x 10^6 freshly isolated PMNLs were finally resuspended in 1 ml of PGC buffer. After preincubation with the test compounds for 10 min at 37°C, the reaction was started by the addition of 1 µM ionomycin plus 20 µM AA. After 10 min at 37°C, the reaction was stopped with 1 ml of methanol and 30 µl of 1 N HCl, and 200 ng of prostaglandin B1 and 500 µl of PBS were added. Formed AA metabolites were extracted and analyzed by HPLC. To determine product formation of purified 5-LO enzyme, 5-LO protein (0.1 µg in 10 µl) was added to 990 µl of PBS containing 1 mM EDTA and 1 mM ATP on ice and the indicated compounds were added. After 5 to 10 min on ice, the samples were preincubated for 30 s at 37°C and CaCl2 and AA (2 mM and 10 µM, respectively) were added to start the 5-LO reaction. After 10 min, the incubation was terminated and 5-LO product formation was determined as described for the intact cells.

Experiment [2] deals with T2, 5-LO. As to the kind of experiment: 5-LO product formation in intact PMNLs (cell-based assay). The conditions noted are these: 1 µM ionomycin plus 20 µM AA, read-out: 5-LO cell-based assay (IC50 in µmol l^-1). The protocol:
as §1

A further experiment relates to Cell lines. In words: Determination of cell viability by MTT assay (apoptose induction). It is filed as cell-based. The note with it: cell line not given, read-out: Apoptose induction (EC50 in µmol l^-1). The protocol: Example 11 - Determination of cell viability by MTT assay
(I. Tretiakova, D. Blaesius, L. Maxia, S. Wesselborg, K. Schulze-Osthoff, J CinatlJr., M. Michaelis, O. Werz, Apoptosis 2008, 13, 119-131.)
Cell viability was assessed using the MTT assay. Cell lines were incubated at 37°C and 5% CO2 atmosphere with the indicated additives for 5 days. PBMC were treated for 40 h and in some experiments, MM6 cells were only treated for 24 h. DMSO was used as solvent never exceeding 0.5% (vol/vol). Then, MTT reagent was added for 4 h. Thereafter, 100 II SDS solution (20% SDS in a 1:1 (vol by vol) dimethylformamide/ water solution) was added for 4 h. Plates were read on a multiwell scanning spectrophotometer (Victor3 plate reader, PerkinElmer, Rodgau-Juegesheim, Germany) at a wavelength of 620 nm and a reference wavelength of 690 nm. Induction of cell death was determined as the relative reduction of the optical density.
For orientation: Tetrazolium assays rely on reduction of a dye to a coloured formazan, in cell work by metabolically active cells.

Regarding `CC(C)CC(=O)c1c(O)c(C(C2=C(O)c3ccccc3C2=O)c2ccccc2)c(O)c(C(C2=C(O)c3ccccc3C2=O)c2ccccc2)c1O` (racemic) [(If), 2,2'-(2,4,6-Trihydroxy-5-(3-methylbutanoyl)-1,3-phenylene)bis(phenylmethylene)bis(3-hydroxy-1H-inden-1-one)], the values for the IC50 at mPGES-1, at 5-LO [1] and on 5-LO [2] were 190 nM, 460 nM and 690 nM, respectively. Also, in the experiment on Cell lines, the EC50 is over 30 µM.
The matching figures for `O=C1C(C(c2ccccc2)c2c(O)c(C(=O)c3ccccc3)c(O)c(C(C3=C(O)c4ccccc4C3=O)c3ccccc3)c2O)=C(O)c2ccccc21` (racemic) [(Ih), 2,2'-(5-Benzoyl-2,4,6-trihydroxy-1,3-phenylene)bis(phenylmethylene)bis(3-hydroxy-1H-inden-1-one)]: 330 nM, 2990 nM, 840 nM and over 30 µM.
For `CC(C)C(=O)c1c(O)c(C(C2=C(O)c3ccccc3C2=O)c2ccccc2)c(O)c(C(C2=C(O)c3ccccc3C2=O)c2ccccc2)c1O` (racemic) [Compound (Ie), 2,2'-(2,4,6-Trihydroxy-5-isobutyryl-1,3-phenylene)bis(phenylmethylene)bis(3-hydroxy-1H-inden-1-one)] the same measures were 550 nM, 730 nM, 620 nM and over 30 µM.
For `CCCCCC(=O)c1c(O)c(C(C2=C(O)c3ccccc3C2=O)c2ccccc2)c(O)c(C(C2=C(O)c3ccccc3C2=O)c2ccccc2)c1O` (racemic) [Compound (Ig), 2,2'-(5-Hexanoyl-2,4,6-trihydroxy-1,3-phenylene)bis(phenylmethylene)bis(3-hydroxy-1H-inden-1-one)] the same measures were 390 nM, 1100 nM, 2090 nM and over 30 µM.
Regarding `CC(C)C(=O)c1c(O)c(C(C2=C(O)c3ccccc3C2=O)C(C)C)c(O)c(C(C2=C(O)c3ccccc3C2=O)C(C)C)c1O` (centres unmarked) [Compound (Ia), 2,2'-(1,1'-(2,4,6-Trihydroxy-5-isobutyryl-1,3-phenylene)bis(2-methylpropane-1,1-diyl))bis(3-hydroxy-1H-inden-1-one)], the values for the IC50 at mPGES-1, at 5-LO [1] and on 5-LO [2] were 300 nM, 2800 nM and 6700 nM, respectively. Moreover, the EC50 with Cell lines is over 30 µM.
Take `CCCCCC(=O)c1c(O)c(C(C2=C(O)c3ccccc3C2=O)C(C)C)c(O)c(C(C2=C(O)c3ccccc3C2=O)C(C)C)c1O` (centres unmarked) [Compound (Ib), 2,2'-(1,1'-(5-Hexanoyl-2,4,6-trihydroxy-1,3-phenylene)bis(2-methylpropane-1,1-diyl))bis(3-hydroxy-1H-inden-1-one)]: the IC50 at mPGES-1 worked out at 80 nM; on 5-LO [1], 1740 nM; at 5-LO [2], 1460 nM. In addition, in the experiment with Cell lines, the EC50 was over 30 µM.
For `CC(C)CC(=O)c1c(O)c(C(C2=C(O)c3ccccc3C2=O)C(C)C)c(O)c(C(C2=C(O)c3ccccc3C2=O)C(C)C)c1O` (centres unmarked) [Compound (Ic), 2,2'-(1,1'-(2,4,6-Trihydroxy-5-(3-methylbutanoyl)-1,3-phenylene)bis(2-methylpropane-1,1-diyl))bis(3-hydroxy-1H-inden-1-one)] the same measures were 180 nM, 300 nM, 1040 nM and over 30 µM.
The matching figures for `CC(C)C(C1=C(O)c2ccccc2C1=O)c1c(O)c(C(=O)c2ccccc2)c(O)c(C(C2=C(O)c3ccccc3C2=O)C(C)C)c1O` (centres unmarked) [Compound (Id), 2,2'-(1,1'-(5-Benzoyl-2,4,6-trihydroxy-1,3-phenylene)bis(2-methylpropane-1,1-diyl))bis(3-hydroxy-1H-inden-1-one)]: 680 nM, 6860 nM, 3230 nM and over 30 µM.

As usually defined, the IC50 is the concentration needed to halve the response being measured. Broadly, the EC50 is the concentration giving half of the maximal effect.

The record behind these values is patent EP2695874A1, “Myrtucommulone analogues” (Universität des Saarlandes, priority 2012, dated 2014).
